Results from patent publication US20220031798A1, “METHODS AND COMPOSITIONS FOR THE TREATMENT OF OPIOID DEPENDENCE AND FOR THE TREATMENT OF PAIN” (Duke University, priority 2018, published 2022).
“Also recorded” adds a separate entry of the source. Residues, ends and D or L forms follow the SMILES beside them.

Legend:
[1] = tested on: morphine-dependent Sprague-Dawley rats; assay: Naloxone-precipitated opioid withdrawal signs after 5-day morphine regimen; format: in vivo, rat; conditions: for Withdrawal signs after naloxone challenge on Day 9: Study 2: adolescent male and female rats, 5 days morphine, then 3 days ketamine 1 mg/kg bid or rapastinel 5 mg/kg alternate days i.p., naloxone 1 mg/kg; for Withdrawal signs after naloxone challenge on day 9, adolescent vs adult: Study 3: adolescent and adult rats
Protocol: Male and female adolescent and adult Sprague-Dawley rats (PN 28-30 and PN 60-75) from Charles River Laboratories were treated with a 5-day, increasing dose morphine regimen (5 mg/kg bid, increasing 5 mg/kg/day to 25 mg/kg) to induce opioid dependency. Animals were group-housed in a 12/12 light/dark cycle with free access to water and standard lab chow. Agents were administered by intraperitoneal injection. In Study 1, animals received morphine (25 mg/kg) on day 6 followed 1 hour later by a naloxone challenge (1 mg/kg) and withdrawal behaviors were quantified as described by Gellert and Holtzman (J Pharmacol Exp Ther. 1978; 205(3):536-546). A second morphine/naloxone challenge was given 21 days later (study day 27). In Study 2 (see FIG. 1), male and female adolescent rats received the same morphine treatment, but on day 6 they received naloxone only (1 mg/kg) to precipitate withdrawal and withdrawal signs (wet dog shakes, diarrhea, mastication, salivation, ptosis and abnormal posture) were assessed as in Study 1. Then animals received saline, ketamine (1 mg/kg, bid) or rapastinel (5 mg/kg on alternate days). On day 9, animals received a second naloxone challenge (1 mg/kg) without a previous morphine treatment, and withdrawal signs were quantified to measure efficacy of ketamine and rapastinel. Study 3 compared the ability of rapastinel to accelerate the loss of opioid withdrawal signs in adult and adolescent rats and Study 4 compared rapastinel effects in male and female adults. Treatment results were analyzed by sequential 3-way (age×sex×treatment) and 1 way (treatment) ANOVA using NCSS followed by post-hoc Fishers LSD multiple comparison test to compare differences between groups. All experiments were approved by the Duke University IACUC and conducted in accordance with the NIH Guide for the Care and Use of Laboratory Animals.
Opioid withdrawal: Animals are treated with saline or naloxone as described. Ten minutes later they are scored by a modification of the Gellert/Holtzman scale for wet dog shakes, diarrhea, mastication, salivation, ptosis and abnormal posture.

[2] = animal models; cited from earlier work
[3] = humans; cited from earlier work
morphine-dependent rats = assay: Withdrawal-precipitated hyperalgesia, von Frey test of pain sensitivity; format: in vivo, rat
Excerpt: FIG. 6. Schematic for withdrawal-precipitated hyperalgesia studies and schematic for von Frey test of pain sensitivity.
There was no difference in hyperalgesia caused by morphine withdrawal before treatment; there was significant expression of naloxone-precipitated hyperalgesia in morphine dependent animals.

GluR1 = GluR1 expression in medial prefrontal cortex by Western blot; format: in vivo, rat; conditions: mPFC dissected at end of treatment
Protocol: The medial prefrontal cortex (mPFC) Brain Region is responsible for decision making in the context of reward (opioids) and penalty (withdrawal). Rats were treated with morphine in accordance with the methods of Example 1. The mPFC was dissected from rats at end of treatment and GluR1 expression levels were measured with a Western Blot test.

[4] = tested on: adult male and female rats; assay: Relapse to morphine conditioned place preference (CPP); format: in vivo, rat; conditions: rapastinel 5 mg/kg during extinction days 6-9 and before relapse test, morphine 2.5 mg/kg
Protocol: CPP and extinction were conducted in adult male and female rats with a biased CPP procedure adapted from Mueller et al. (Mueller et al., Behavior. Brain Res 136: 389-397(2002)). CPP is conducted in a two-sided chamber. Side 1 had white walls and plexiglass flooring, and Side 2 had black walls and plastic mesh flooring (preferred side).
Rats went through a conditioned place preference procedure involving daily pairing with saline and morphine (2.5 mg/kg) on opposite sides of the CPP apparatus for 4 days. On habituation day (day 1), animals were allowed to explore the whole apparatus for 30 minutes. On days 2-4, rats were restricted to Side 1 for morphine (2.5 mg/kg sc) and Side 2 for saline (alternated am and pm daily). On day 5 they received a test of conditioning in which they were allowed to explore the whole apparatus. For the next 4 days (days 6-9) they received daily saline or rapastinel (5 mg/kg) 30 minutes before twice daily extinction trials in which animals received saline on both sides of the apparatus. They received an extinction test in which they were allowed to explore the entire apparatus on day 10, and then a relapse test on day 11 in which they received a dose of saline or rapastinel, followed by saline or 2.5 mg/kg of morphine and were allowed to explore the apparatus.
N=5 for rapastinel and 3 for saline.

[5] = animal models (Moskal et al., 2016); cited from earlier work

C=CCN1CC[C@]23c4c5ccc(O)c4O[C@H]2C(=O)CC[C@@]3(O)[C@H]1C5 [naloxone]
Withdrawal response to morphine/naloxone challenge on Day 6 ([1]; Study 1: 5 days morphine, morphine 25 mg/kg then naloxone 1 mg/kg 1 hour later, adolescent and adult rats): elicited a robust withdrawal response

N[C@@H]1CON=C1O [d-cycloserine]
CPP extinction and naloxone place aversion [2]: facilitated CPP extinction and naloxone place aversion
Half-life [3]: short half-life

C[C@@H](O)[C@H](N)C(=O)N1CCCC1C(=O)N1CCC[C@H]1C(=O)N[C@H](C(N)=O)[C@@H](C)O (stereo partly drawn) [Rapastinel, rapastinel] (HELM PEPTIDE1{T.[O=C(C1CCCN1[*:1])[*:2]].P.T.[am]}$$$$V2.0)
Withdrawal signs after naloxone challenge on Day 9 [1]: extinguished naloxone-precipitated withdrawal; also recorded: caused an enhanced loss of opioid withdrawal signs; also recorded: accelerated loss of withdrawal signs
Withdrawal signs after naloxone challenge on day 9, adolescent vs adult ([1]; 5 days morphine then 3 days saline or rapastinel): extinguished naloxone-precipitated withdrawal comparably in adolescent and adult rats; also recorded: accelerated extinction of opioid withdrawal at both ages; also recorded: significantly enhanced recovery from opioid dependence in both adolescent and adult rats
Withdrawal signs after naloxone challenge on day 9, adolescent vs adult ([1]; 5 days morphine then 3 days saline or rapastinel, listed as rapastinel): effective
Withdrawal signs after naloxone challenge on day 9, male vs female ([1]; Study 4: male and female rats, 5 days morphine then 3 days saline or rapastinel): extinguished naloxone-precipitated withdrawal comparably in male and female rats
Hyperalgesia scores (morphine-dependent rats; morphine-dependent rats, Day 9 following treatment): trend towards a return to baseline (SS) hyperalgesia scores; also recorded: blunts hyperalgesia
Baseline (SS) hyperalgesia response (morphine-dependent rats; saline (morphine-naive) rats): does not alter baseline (SS) response
GluR1 expression in the mPFC (GluR1): no significant effect
Difference in time spent on drug-paired side, day 11 (relapse test) vs day 10 (extinction trial) [4]: blocks relapse to conditioned place preference
Difference in time spent on drug-paired side, day 11 (relapse test) vs day 10 (extinction trial) ([4]; listed as rapastinel): blunted morphine-induced relapse
Negative side effects during treatment [5]: has not been shown to produce any negative side effects

CN1CC[C@]23c4c5ccc(O)c4O[C@H]2[C@@H](O)C=C[C@H]3[C@H]1C5 [morphine]
GluR1 expression in the mPFC (GluR1): higher expression of GluR1; also recorded: significantly (p<0.001) higher GluR1 expression

CNC1(c2ccccc2Cl)CCCCC1=O (stereo not drawn) [ketamine]
Withdrawal signs after naloxone challenge on Day 9 [1]: not ketamine extinguished naloxone-precipitated withdrawal; also recorded: not ketamine caused an enhanced loss of opioid withdrawal signs; also recorded: not ketamine accelerated loss of withdrawal signs; also recorded: only marginally effective
